# Measurements reported in article PMC9168369 (Frontiers in Pharmacology, 2022).
# Where two headings read alike, the source gives them in different places.
# Columns and labels:
# IDO1 = settings: read-out: average IC50, cellular assay; ref Yue et al., 2017; Komiya and Huang, 2018; cited from earlier work
# Hela cells = assay: Cell anti-proliferative activity, CCK8 assay; format: cell-based; settings: Homo sapiens, CCK8, 48 h, 0.25 to 16.0 μM
# Method: Cell anti-proliferative activity to Hela was evaluated by the CCK8 assay. The Hela cells were seeded at a density of 2,000 cells per well into a 96-well microplate in 100 μl of the growth medium. Cells were incubated at 37°C and 5% CO2 overnight. The next day, 100 μl per well of the diluted inhibitor in the growth medium was added with the final concentration from 0.25 to 16.0 μM. The cells were treated with DMSO as control. A series of dilutions were made in 0.1% DMSO in the assay medium so that the final concentration of DMSO was 0.1% in all of treatments. Cells were incubated at 37°C and 5% CO2 for 48 h. Then, 10 μl of CCK8 was added to each well. The plates were incubated at 37°C for 2 h, after that, the plates were recorded by measuring the absorbance at 450 nm with the reference wavelength of 630 nm using an EnVision Multilabel Reader (PerkinElmer). All assays were conducted with three parallel samples and three repetitions.
# human IDO1 = molecular target: T1, human IDO1 (Homo sapiens, UniProt P14902); assay: Hela cell based IDO1 assay (kynurenine readout, IFN-γ induced); settings: Hela cells, human IFN-γ 100 ng/ml, 18 h
# T1 construct: Hela cell was selected because of its expression in native human IDO1 induced with IFNγ; endogenous in cells; host or cells: Hela cells (ATCC), induced with human IFN-γ 100 ng/ml
# T1 sequence (P14902 whole entry): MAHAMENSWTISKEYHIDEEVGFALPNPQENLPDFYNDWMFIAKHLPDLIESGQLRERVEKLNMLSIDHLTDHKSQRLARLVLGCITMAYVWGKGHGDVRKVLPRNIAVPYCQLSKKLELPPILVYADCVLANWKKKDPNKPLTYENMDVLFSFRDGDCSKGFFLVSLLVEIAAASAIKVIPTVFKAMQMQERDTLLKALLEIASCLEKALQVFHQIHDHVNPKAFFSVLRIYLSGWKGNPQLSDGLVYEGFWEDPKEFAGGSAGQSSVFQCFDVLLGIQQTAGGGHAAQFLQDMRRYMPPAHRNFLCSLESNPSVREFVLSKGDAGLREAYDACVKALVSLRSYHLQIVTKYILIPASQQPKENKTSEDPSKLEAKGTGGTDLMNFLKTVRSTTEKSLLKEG
# Method: To perform the Hela cell based IDO1 assay, Hela cells were seeded at 50,000 cells per well into a 96-well microplate in 100 μl of DMEM complete growth medium overnight. The next day, 100 μl of the diluted inhibitor was added into each well in the growth medium, then human IFN-γ was added with a final concentration of 100 ng/ml. Cells were incubated for 18 h. […] The plate was incubated at 50°C for 30 min to hydrolyze N-formyl kynurenine produced by IDO to kynurenine. The plate was then centrifuged at 2,500 rpm for 10 min to remove sediments. 100 μl of supernatant per well was transferred to another 96-well plate and mixed with 100 μl of 2% (w/v) 4-(dimethylamino) benzaldehyde in acetic acid. The plate was incubated at room temperature for 10 min, the yellow color derived from kynurenine was recorded by measuring the absorbance at 480 nm using a microplate reader (PerkinElmer, United States).
# [1] = system: SHEE cells (human immortalized esophageal epithelial cell line); assay: Toxicity to SHEE, MTT assay; format: cell-based; settings: 48 h, read-out: IC50 SHEE
# Method: Toxicity to SHEE was evaluated by using the MTT assay. The SHEE cells were seeded in 96-well plates with densities of 2,200–2,500 cells/well in 100 μl. One day after seeding, the concentration of the test compounds being between 0 and 50 μM, 0.1% DMSO were added to the cells as control. Approximately 2,200–2,500 transfected cells in 100 μl were incubated in quintuplicate in 96-well plates. After 48 h, MTT was added and incubated in the plate for 1–4 h in the incubator. The absorbance at 490 nm was measured using a microplate reader (Thermo).
# [2] = parameters: method as in Ma et al. (2019); settings: ref Ma et al. (2019); cited from earlier work
SMILES,melting point [°C],IC50 (Hela cells) [µM],IC50 (human IDO1) [µM],also measured
"C#Cc1cccc(Nc2ncnc3cc(OCCOC)c(OCCOC)cc23)c1 [Erlotinib, reference compound]",,> 16,,IC50 [1]: 21 ± 2.11 µM
"COCCOc1cc2ncnc(Nc3cccc(-c4cn(-c5ccccc5)nn4)c3)c2cc1OCCOC [compound a, [6,7-Bis-(2-methoxy-ethoxy)-quinazolin-4-yl]-[3-(1-phenyl-1H-[1,2,3]triazol-4-yl)-phenyl]-amine]",,> 16,,
O[C@H](C[C@H]1c2c(F)cccc2-c2cncn21)[C@H]1CC[C@H](O)CC1 [Navoximod],,,,absorption [2]: quickly absorbed; tolerability [2]: well tolerated

# Continued, in another order:
melting point [°C],IC50 (Hela cells) [µM],IC50 (human IDO1) [µM],SMILES,also measured
94 to 97,> 16,0.32 ± 0.07,"COCCOc1cc2ncnc(Nc3cccc(-c4cn(Cc5ccccc5Br)nn4)c3)c2cc1OCCOC [compound e, [6,7-Bis-(2-methoxy-ethoxy)-quinazolin-4-yl]-{3-[1-(2-bromo-benzyl)-1H-[1,2,3]triazol-4-yl]-phenyl}-amine]",
89 to 92,> 16,,"COCCOc1cc2ncnc(Nc3cccc(-c4cn(Cc5ccccc5)nn4)c3)c2cc1OCCOC [compound b, N-(3-(1-Benzyl-1H-1,2,3-triazol-4-yl)phenyl)-6,7-bis(2-methoxyethoxy)quinazolin-4-amine]","IC50 ([1]; MTT, 0 to 50 μM): > 50 µM"
93 to 96,,0.4 ± 0.14,"COCCOc1cc2ncnc(Nc3cccc(-c4cn(Cc5ccccc5I)nn4)c3)c2cc1OCCOC [compound d, [6,7-Bis-(2-methoxy-ethoxy)-quinazolin-4-yl]-{3-[1-(2-iodo-benzyl)-1H-[1,2,3]triazol-4-yl]-phenyl}-amine]",
109 to 112,> 16,47.1 ± 33.2,"COCCOc1cc2ncnc(Nc3cccc(-c4cn(CCc5ccccc5)nn4)c3)c2cc1OCCOC [compound c, [6,7-Bis-(2-methoxy-ethoxy)-quinazolin-4-yl]-[3-(1-phenethyl-1H-[1,2,3]triazol-4-yl)-phenyl]-amine]",
